From patent US8618046B2, “Treatment of atherosclerosis with cholesterol ester transport protein mimotopes” (Affiris AG, priority 2007, dated 2013)
“Also recorded” adds a separate entry of the source. Where no end group is shown, it is not given here.

Tests used:
[1] = test system: injected peptide-BSA; assay: Titer to the injected peptide in sera of immunised animals (peptide ELISA); type: in vivo, mouse; details: FIG. 11; Balb/c mice, 30 μg peptide, Alum as adjuvant; S3 = 2 weeks after 3rd injection; detection αIgG
Procedure: Balb/c mice/30 μg Peptide, 2 injections in 2 week intervals. S3=2 weeks after 3rd injection. Alum as adjuvant. […] Detection: αIgG:
(§1) Inhibiting as well as some non-inhibiting peptides were coupled to KLH and injected into mice (wildtype or CETP-transgenic mice; subcutaneously into the flank or intra-dermaly into the ears) or rabbits (subcutaneously into the flank) together with an appropriate adjuvant (aluminium hydroxide and Gerbu 100 for mice and aluminium hydroxide or CFA/IFA for rabbits).
(§2) Titers to injected peptides as well as to the original CETP epitope were determined. In addition, for selected sera also immune response to CETP protein was measured (Results see FIGS. 7a to 7d and FIGS. 19a to 19e).
Subcutaneous injections in the flank were performed in week 1, week 3 and week 7 with 30 μg peptide-KLH per mouse. Intradermal injections in the ear were performed in week 1, week 3 and week 6 with 10 μg peptide-KLH per mouse. Sera were taken 2 weeks after the 3rd injection. Vaccine formulation with Alum (always 1 mg per mouse): up to 250 μl, injected into one flank. The Alum formulation with 1 ml per mouse (500 μl into each flank) was in 1×PBS as buffer. […]

[2] = test system: rabbit CETP; assay: Anti-protein ELISA of sera of immunised mice, plates coated with purified rabbit CETP; type: in vivo, mouse
Text: (§3) FIGS. 12a and 12b show the in vivo induction of CETP specific antibodies by the administration of the mimotopes of the invention. Titers to p4073 and its correlation to titers to CETP of selected groups (which show high titers against p4073): gr.4, gr.9, gr.10, gr.14, gr.16-20/gr.1 (KLH), gr.2 (original epitope) as controls. Coating: recombinant GST-CETP or purified rabbit CETP, respectively:
(§4) Sera of each group (5 Balb/c mice each) were combined, diluted 1:100 and tested on ELISA plates coated with recombinant GST-CETP or rabbit CETP, respectively. Detection of bound antibodies was with algG.
as §2

[3] = test system: irrelevant peptide-BSA; assay: Titer to irrelevant peptide in sera of immunised animals (peptide ELISA); type: in vivo, mouse; details: FIG. 11; Balb/c mice, 30 μg peptide, Alum as adjuvant; S3; detection αIgG
Procedure: (§5) Balb/c mice/30 μg Peptide, 2 injections in 2 week intervals. S3=2 weeks after 3rd injection. Alum as adjuvant. Titers against original epitope (p4073) induced by injection of mimotopes. Well coating: 50 μl of 1 μM p4073-BSA or 1 μg/ml activated KLH. Detection: αIgG:
(§6) Subcutaneous injections in the flank were performed in week 1, week 3 and week 7 with 30 μg peptide-KLH per mouse. Intradermal injections in the ear were performed in week 1, week 3 and week 6 with 10 μg peptide-KLH per mouse. Sera were taken 2 weeks after the 3rd injection. Vaccine formulation with Alum (always 1 mg per mouse): up to 250 μl, injected into one flank. The Alum formulation with 1 ml per mouse (500 μl into each flank) was in 1×PBS as buffer.
Vaccine formulation with Gerbu Adjuvant 100 (Gerbu Cat. Nr. #3100; always 50 μl adjuvant per mouse): 200 μl, 100 μl injected into each flank comprising 1×HEPES as buffer.
Female Balb/c mice, five mice per group, were subcutaneously immunized with 30 μg peptide coupled to KLH. Control groups were administered KLH or C-[…] (SEQ ID NO. 147). As adjuvant alum was used. […] The in vitro ELISA assay to determine the antibody titer was performed with pooled sera after two vaccinations in a two week interval (S2; see FIGS. 7a to 7d). The wells of the ELISA plate were coated with KLH (positive control), mimotope-BSA conjugate, C-[…] (SEQ ID NO. 147) and a irrelevant peptide-BSA conjugate (negative control). The detection was performed with anti-mouse IgG.

[4] = test system: recombinant GST-CETP; assay: Anti-protein ELISA of sera of immunised mice, plates coated with recombinant GST-CETP; type: in vivo
Text: as §3, §4, §2

[5] = test system: original epitope (p4073); assay: Titer to the original CETP epitope in sera of immunised animals (peptide ELISA); type: in vivo, mouse; details: FIG. 11; Balb/c mice, 30 μg peptide, Alum as adjuvant; S3; coating 1 μM p4073-BSA; detection αIgG
Procedure: as §5, §1, §2, §6
Vaccine formulation with Gerbu Adjuvant 100 (Gerbu Cat. Nr. #3100; always 50 μl adjuvant per mouse): 200 μl, 100 μl injected into each flank comprising 1×HEPES as buffer. […]

[6] = test system: CETP; assay: CETP activity assay: human serum mixed with serum from vaccinated wild-type mice; type: biochemical; details: FIGS. 15 to 17 and remarks in the example set-up table, sera of vaccinated mice
[7] = FIG. 12a, sera of immunised mice, purified rabbit CETP
[8] = FIG. 12a, sera of immunised mice
[9] = FIG. 12b, sera of immunised mice, purified rabbit CETP
[10] = FIG. 12b, sera of immunised mice
[11] = FIG. 13, combined sera of 5 Balb/c mice, diluted 1:100

| Substance | titer, injected peptide-BSA [1] | ELISA signal, rabbit CETP [2, 7] | titer, irrelevant peptide-BSA [3] | ELISA signal, recombinant GST-CETP [4, 8] | titer, original epitope-BSA [5] | ELISA signal, rabbit CETP [2, 9] | ELISA signal, recombinant GST-CETP [4, 10] | inhibition of CETP activity in human serum (in words) ([6]; listed as p4325-KLH/Alum) | inhibition of CETP activity in human serum (in words) [6] | ELISA signal, rabbit CETP [2, 11] | ELISA signal, recombinant GST-CETP [4, 11] |
| --- | --- | --- | --- | --- | --- | --- | --- | --- | --- | --- | --- |
| p4324-KLH: C-FGFPSHLIIDWAQSLS coupled to KLH (CFGFPSHLIIDWAQSLS; also: coupled to KLH) | 12.570 | 0.28 | 10 | 0.58 | 7.600 | – | – | – | – | – | – |
| p4325-KLH: C-FGFPSHLIIDWLQSLS coupled to KLH (CFGFPSHLIIDWLQSLS; also: coupled to KLH) | 2.930 | – | 10 | – | 1.820 | 0.85 | 0.59 | inhibits significantly CETP activity; also recorded: C-31 and C-33; sera inhibiting | – | – | – |
| p4340-KLH: C-PGFPAHVSIDWLQSLS coupled to KLH (CPGFPAHVSIDWLQSLS; also: coupled to KLH) | 18.100 | 0.21 | 10 | 0.49 | 15.640 | – | – | – | – | – | – |
| p4341-KLH: C-WGFPAHVSIDWLQSLS coupled to KLH (CWGFPAHVSIDWLQSLS; also: coupled to KLH) | 10.350 | 0.18 | 10 | 0.39 | 5.500 | – | – | – | – | – | – |
| p4342-KLH: C-FSFPAHVSIDWLQSLS coupled to KLH (CFSFPAHVSIDWLQSLS; also: coupled to KLH) | 4.620 | – | 10 | – | 1.610 | 0.41 | 0.38 | – | – | – | – |
| p4343-KLH: C-FYFPAHVSIDWLQSLS coupled to KLH (CFYFPAHVSIDWLQSLS; also: coupled to KLH) | 5.580 | – | 10 | – | 2.900 | 1.05 | 0.61 | – | C-33: recogn. protein/not in- | – | – |
| p4344-KLH: C-FDFPAHVSIDWLQSLS coupled to KLH (CFDFPAHVSIDWLQSLS; also: coupled to KLH) | 12.200 | – | 10 | – | 3.580 | 0.43 | 0.35 | – | – | – | – |
| p4345-KLH: C-FATPSHLIIDWLQSLS coupled to KLH (CFATPSHLIIDWLQSLS; also: coupled to KLH) | 8.380 | – | 10 | – | 1.270 | 0.46 | 0.39 | – | – | – | – |
| p4347-KLH: C-FGFPAHVSIDWLQLLS coupled to KLH (CFGFPAHVSIDWLQLLS; also: coupled to KLH) | 12.000 | 0.2 | 10 | 0.35 | 9.160 | – | – | – | – | – | – |
| p4351-KLH: C-FGFPAHVSIDWLQYLS coupled to KLH (CFGFPAHVSIDWLQYLS; also: coupled to KLH) | 2.950 | – | 10 | – | 2.400 | 0.59 | 0.54 | – | – | – | – |
| p4352-KLH: C-FGFPAHVSIDWLQSIS coupled to KLH (CFGFPAHVSIDWLQSIS; also: coupled to KLH) | 19.680 | 0.28 | 10 | 0.48 | 12.070 | – | – | – | – | – | – |
| p4353-KLH: C-FGFPAHVSIDWLQSLT coupled to KLH (CFGFPAHVSIDWLQSLT; also: coupled to KLH) | 11.200 | 0.39 | 10 | 0.57 | 8.650 | – | – | – | – | – | – |
| p4358-KLH: C-FGFPAHISIDWLQSLS coupled to KLH (CFGFPAHISIDWLQSLS; also: coupled to KLH) | 16.500 | 0.58 | 10 | 0.68 | 12.940 | – | – | – | – | – | – |
| p4359-KLH: C-FGFPAHIIIDWLQSLS coupled to KLH (CFGFPAHIIIDWLQSLS; also: coupled to KLH) | 8.540 | 0.54 | 10 | 0.79 | 5.340 | – | – | – | – | – | – |
| p4362-KLH/Alum: C-FGFPAHVYIDWLQSLS coupled to KLH, Alum (CFGFPAHVYIDWLQSLS; also: coupled to KLH) | – | – | – | – | – | – | – | – | inhibits significantly CETP activity | 0.94 | 0.86 |
| p4366-KLH: C-FGFPSHLIIDWSQSLS coupled to KLH (CFGFPSHLIIDWSQSLS; also: coupled to KLH) | 4.700 | – | 10 | – | 3.600 | 0.65 | 0.4 | – | – | – | – |
